From US4711877A, “6-pen-vasopressin compounds” (SmithKline Beckman Corporation, priority 1985, dated 1987)
Positions of bridges follow the written chain, without caps; N, C: chain ends. Non-standard residues stand in square brackets, D forms with d. Residues, ends and D or L forms follow the SMILES beside them. Pen = CC(C)(S)[C@H](N)C(=O)O; Mpa = O=C(O)CCS

How the values were obtained:
[1] = biological target: T1, vasopressin receptor sites (Sus scrofa, UniProt P32307); assay: Binding activity in hog tissue (KB), protocol of Stassen et al.
T1 construct: from tissue; renal medulla by own knowledge of the cited protocol
T1 sequence (P32307 whole entry): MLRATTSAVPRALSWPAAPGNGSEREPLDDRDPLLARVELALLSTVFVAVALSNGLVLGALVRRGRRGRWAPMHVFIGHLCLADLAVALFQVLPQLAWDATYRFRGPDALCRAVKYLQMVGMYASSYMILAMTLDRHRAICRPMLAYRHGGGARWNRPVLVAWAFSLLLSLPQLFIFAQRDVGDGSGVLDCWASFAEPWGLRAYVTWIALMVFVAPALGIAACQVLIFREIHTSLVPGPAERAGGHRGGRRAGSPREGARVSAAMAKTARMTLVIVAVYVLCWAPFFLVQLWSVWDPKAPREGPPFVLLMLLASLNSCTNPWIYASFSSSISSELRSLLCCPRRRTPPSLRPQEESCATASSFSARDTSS
Text: (§1) The binding activity in hog and rat liver tissue, as well as the antagonistic activity in the hydropenic rat, of the compounds according to this invention is illustrated by the following results which were obtained using testing protocols which are described in the literature [F. Stassen, J. Pharmacology and Experimental Therapeutics, 223 50 (1982)]: […]

[2] = biological target: T2, vasopressin receptor sites (Rattus norvegicus, UniProt P30560); assay: Binding activity in rat liver tissue (KB), protocol of Stassen et al.
T2 construct: from tissue; host or cells: rat liver tissue
T2 sequence (P30560 whole entry): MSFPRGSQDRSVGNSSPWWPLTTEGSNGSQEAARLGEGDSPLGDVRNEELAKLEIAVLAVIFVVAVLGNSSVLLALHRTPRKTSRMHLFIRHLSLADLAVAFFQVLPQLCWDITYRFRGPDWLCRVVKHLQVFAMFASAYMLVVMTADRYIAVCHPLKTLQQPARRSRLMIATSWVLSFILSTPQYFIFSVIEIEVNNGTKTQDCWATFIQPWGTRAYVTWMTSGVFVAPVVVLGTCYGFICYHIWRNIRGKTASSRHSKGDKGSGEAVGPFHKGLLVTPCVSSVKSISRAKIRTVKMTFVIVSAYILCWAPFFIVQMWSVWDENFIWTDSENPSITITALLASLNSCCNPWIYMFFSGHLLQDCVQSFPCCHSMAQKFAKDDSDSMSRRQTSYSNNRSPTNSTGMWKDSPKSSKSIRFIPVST
Text: as §1

Kb [1] | Kb [2] | Structure (SMILES)
9900 nM | – | CCOc1ccc(C[C@H]2NC(=O)CCSSC[C@@H](C(=O)N3CCC[C@H]3C(=O)N[C@@H](CCCNC(=N)N)C(=O)NCC(N)=O)NC(=O)[C@H](CC(N)=O)NC(=O)[C@H](C(C)C)NC(=O)[C@H](Cc3ccccc3)NC2=O)cc1 [Compound B, Mpr--D-Tyr(Et)--Phe--Val--Asn--Cys--Pro--Arg--Gly(NH2), reference compound] ([Mpa][dY](Et)FVNCPRG-NH2; disulfide 1-6)
190 nM | 110 nM | CCOc1ccc(C[C@H]2NC(=O)CCSSC(C)(C)[C@@H](C(=O)N3CCC[C@H]3C(=O)N[C@@H](CCCNC(=N)N)C(=O)NCC(N)=O)NC(=O)[C@H](CC(N)=O)NC(=O)[C@H](C(C)C)NC(=O)[C@H](Cc3ccccc3)NC2=O)cc1 [Compound A, Mpr--D-Tyr(Et)--Phe--Val--Asn--Pen--Pro--Arg--Gly(NH2)] ([Mpa][dY](Et)FVN[Pen]PRG-NH2; disulfide 1-6)
